Data published in ChEMBL document CHEMBL4364344, “Design, synthesis and evaluation of activity and pharmacokinetic profile of new derivatives of xanthone and piperazine in the central nervous system” (Bioorg Med Chem Lett, 2019).

Experiments:
[1] = AUC (0 to t) in CD-1 mouse plasma at 5 mg/kg, ip measured up to 480 mins by LC/ESI-MS/MS analysis; type: ADME, organism-based; set-up: dose 5 mg/kg, time < 8 hr, route intraperitoneal
[2] = Terminal half life in CD-1 mouse plasma at 5 mg/kg, ip measured up to 480 mins by LC/ESI-MS/MS analysis; type: ADME, organism-based; settings: read-out: beta t1/2
[3] = MRT in CD-1 mouse plasma at 5 mg/kg, ip measured up to 480 mins by LC/ESI-MS/MS analysis; type: ADME, organism-based
[4] = Tmax in CD-1 mouse plasma at 5 mg/kg, ip measured up to 480 mins by LC/ESI-MS/MS analysis; type: ADME, organism-based
[5] = Apparent clearance in CD-1 mouse plasma at 5 mg/kg, ip measured up to 480 mins by LC/ESI-MS/MS analysis; type: ADME, organism-based
[6] = MRT in CD-1 mouse brain at 5 mg/kg, ip measured up to 480 mins by LC/ESI-MS/MS analysis; type: ADME, organism-based
[7] = Cmax in CD-1 mouse brain at 5 mg/kg, ip measured up to 480 mins by LC/ESI-MS/MS analysis; type: ADME, organism-based; set-up: dose 5 mg/kg, route intraperitoneal
[8] = Tmax in CD-1 mouse brain at 5 mg/kg, ip measured up to 480 mins by LC/ESI-MS/MS analysis; type: ADME, organism-based
[9] = Mutagenicity in Salmonella typhimurium TA98 at 50 ug/plate preincubated for 20 mins followed by addition of top agar and measured after 48 hrs by Ames test; type: toxicity; settings: salmonella enterica subsp. enterica serovar typhimurium
[10] = Mutagenicity in Salmonella typhimurium TA100 at 100 ug/plate preincubated for 20 mins followed by addition of top agar and measured after 48 hrs by Ames test; type: toxicity; settings: salmonella enterica subsp. enterica serovar typhimurium
[11] = biological target: Adenosine receptor A1 (Homo sapiens) (UniProt P30542); experiment: Displacement of [3H]DPCPX from recombinant human A1 receptor at 10 uM after 60 mins by radiometric scintillation analysis relative to control
[12] = biological target: Adenosine receptor A3 (Homo sapiens) (UniProt P0DMS8); experiment: Displacement of [125I]AB-MECA from recombinant human A3 receptor at 10 uM after 120 mins by radiometric scintillation analysis relative to control
Sequence of Adenosine receptor A3 (Homo sapiens) (P0DMS8 whole entry): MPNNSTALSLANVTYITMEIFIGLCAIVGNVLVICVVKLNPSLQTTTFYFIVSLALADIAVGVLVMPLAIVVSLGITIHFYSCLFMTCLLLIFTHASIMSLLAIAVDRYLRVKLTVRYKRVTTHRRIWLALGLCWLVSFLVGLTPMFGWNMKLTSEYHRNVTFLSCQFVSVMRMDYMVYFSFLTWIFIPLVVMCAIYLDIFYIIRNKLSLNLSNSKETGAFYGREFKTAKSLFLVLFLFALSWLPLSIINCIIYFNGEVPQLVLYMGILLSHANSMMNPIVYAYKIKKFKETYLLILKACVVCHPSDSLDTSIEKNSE

[13] = biological target: Adrenergic receptor alpha-1 (Rattus norvegicus) (UniProt P15823+P23944+P43140); experiment: Displacement of [3H]prazosin from rat brain alpha 1 receptor at 10 uM after 60 mins by radiometric scintillation analysis relative to control
[14] = species: Rattus norvegicus; experiment: Displacement of [3H]-Flumazenil from GABAA/BZD receptor in rat cortical membranes incubated for 60 mins by radioligand binding assay relative to control; type: cell membranes
[15] = biological target: Cannabinoid receptor 1 (Homo sapiens) (UniProt P21554); experiment: Displacement of [3H]CP 55940 from recombinant human CB1 receptor at 10 uM by radiometric scintillation analysis relative to control
[16] = biological target: D(1A) dopamine receptor (Homo sapiens) (UniProt P21728); experiment: Displacement of [3H]SCH 23390 from recombinant human D1 dopamine receptor at 10 uM after 60 mins by radiometric scintillation analysis relative to control
[17] = biological target: D(2) dopamine receptor (Homo sapiens) (UniProt P14416); experiment: Displacement of [3H]methyl-spiperone from recombinant human D2S dopamine receptor at 10 uM after 60 mins by radiometric scintillation analysis relative to control
Sequence of D(2) dopamine receptor (Homo sapiens) (P14416 whole entry): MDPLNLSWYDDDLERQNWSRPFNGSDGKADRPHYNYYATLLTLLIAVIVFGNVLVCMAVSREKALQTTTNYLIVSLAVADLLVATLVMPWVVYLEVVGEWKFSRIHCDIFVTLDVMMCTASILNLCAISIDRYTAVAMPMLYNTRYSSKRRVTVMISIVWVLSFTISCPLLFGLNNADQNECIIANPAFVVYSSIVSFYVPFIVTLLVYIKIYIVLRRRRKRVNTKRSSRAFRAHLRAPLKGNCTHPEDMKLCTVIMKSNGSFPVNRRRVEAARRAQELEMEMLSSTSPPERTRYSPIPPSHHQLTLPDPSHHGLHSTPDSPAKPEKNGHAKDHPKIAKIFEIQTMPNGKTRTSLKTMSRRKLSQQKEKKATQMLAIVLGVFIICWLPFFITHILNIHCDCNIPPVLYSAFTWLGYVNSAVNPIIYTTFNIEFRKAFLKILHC

[18] = biological target: Endothelin-1 receptor (Homo sapiens) (UniProt P25101); experiment: Displacement of [125I]endothelin-1 from recombinant human ETA receptor at 10 uM after 120 mins by radiometric scintillation analysis relative to control
[19] = biological target: C-X-C chemokine receptor type 2 (Homo sapiens) (UniProt P25025); experiment: Displacement of [125I]IL-8 from recombinant human CXCR2 at 10 uM after 60 mins by radiometric scintillation analysis relative to control
Sequence of C-X-C chemokine receptor type 2 (Homo sapiens) (P25025 whole entry): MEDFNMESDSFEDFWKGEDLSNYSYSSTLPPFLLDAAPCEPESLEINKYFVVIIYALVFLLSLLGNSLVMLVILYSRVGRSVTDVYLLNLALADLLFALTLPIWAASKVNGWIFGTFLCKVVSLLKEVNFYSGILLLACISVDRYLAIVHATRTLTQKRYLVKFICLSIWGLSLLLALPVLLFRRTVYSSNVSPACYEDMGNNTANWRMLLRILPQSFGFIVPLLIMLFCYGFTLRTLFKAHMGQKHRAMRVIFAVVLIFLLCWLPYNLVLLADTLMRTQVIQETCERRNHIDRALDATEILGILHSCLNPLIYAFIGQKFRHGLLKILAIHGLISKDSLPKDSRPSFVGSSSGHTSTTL

[20] = biological target: Melatonin receptor type 1A (Homo sapiens) (UniProt P48039); experiment: Displacement of [125I]2-iodomelatonin from recombinant human MT1 receptor at 10 uM after 240 mins by radiometric scintillation counting analysis relative to control
[21] = biological target: Muscarinic acetylcholine receptor M1 (Homo sapiens) (UniProt P11229); experiment: Displacement of [3H]pirenzepine from recombinant human M1 receptor at 10 uM after 60 mins by radiometric scintillation analysis relative to control
Sequence of Muscarinic acetylcholine receptor M1 (Homo sapiens) (P11229 whole entry): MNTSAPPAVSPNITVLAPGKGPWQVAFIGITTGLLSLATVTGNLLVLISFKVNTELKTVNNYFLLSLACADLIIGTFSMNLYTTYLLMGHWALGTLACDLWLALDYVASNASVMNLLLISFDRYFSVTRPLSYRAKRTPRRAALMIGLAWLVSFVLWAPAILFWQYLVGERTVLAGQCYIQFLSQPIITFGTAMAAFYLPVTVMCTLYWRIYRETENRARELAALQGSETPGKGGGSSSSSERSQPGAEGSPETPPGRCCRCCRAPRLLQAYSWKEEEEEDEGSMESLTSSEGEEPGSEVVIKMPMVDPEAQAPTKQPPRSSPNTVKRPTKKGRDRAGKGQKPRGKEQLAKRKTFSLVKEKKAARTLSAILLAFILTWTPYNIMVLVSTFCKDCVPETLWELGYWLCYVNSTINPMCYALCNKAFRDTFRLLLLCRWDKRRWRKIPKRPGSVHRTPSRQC

[22] = biological target: Substance-K receptor (Homo sapiens) (UniProt P21452); experiment: Displacement of [125I]NKA from recombinant human NK2 receptor at 10 uM after 60 mins by radiometric scintillation analysis relative to control
Sequence of Substance-K receptor (Homo sapiens) (P21452 whole entry): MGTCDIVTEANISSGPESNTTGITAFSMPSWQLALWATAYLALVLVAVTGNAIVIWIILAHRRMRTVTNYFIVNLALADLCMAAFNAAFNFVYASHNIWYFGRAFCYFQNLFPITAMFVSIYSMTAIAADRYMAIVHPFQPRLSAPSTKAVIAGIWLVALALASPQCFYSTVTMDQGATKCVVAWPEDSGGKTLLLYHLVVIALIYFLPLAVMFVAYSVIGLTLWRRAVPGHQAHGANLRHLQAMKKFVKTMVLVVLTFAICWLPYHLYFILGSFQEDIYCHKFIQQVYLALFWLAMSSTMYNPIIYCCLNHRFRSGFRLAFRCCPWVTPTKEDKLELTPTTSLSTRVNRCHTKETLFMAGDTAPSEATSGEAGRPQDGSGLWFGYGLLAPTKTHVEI

[23] = biological target: Neuromedin-K receptor (Homo sapiens) (UniProt P29371); experiment: Displacement of [3H]SR 142801 from recombinant human NK3 receptor at 10 uM after 120 mins by radiometric scintillation analysis relative to control
[24] = biological target: Neuropeptide Y receptor type 1 (Homo sapiens) (UniProt P25929); experiment: Displacement of [125I]peptide YY from human Y1 receptor at 10 uM after 120 mins by radiometric scintillation analysis relative to control
Sequence of Neuropeptide Y receptor type 1 (Homo sapiens) (P25929 whole entry): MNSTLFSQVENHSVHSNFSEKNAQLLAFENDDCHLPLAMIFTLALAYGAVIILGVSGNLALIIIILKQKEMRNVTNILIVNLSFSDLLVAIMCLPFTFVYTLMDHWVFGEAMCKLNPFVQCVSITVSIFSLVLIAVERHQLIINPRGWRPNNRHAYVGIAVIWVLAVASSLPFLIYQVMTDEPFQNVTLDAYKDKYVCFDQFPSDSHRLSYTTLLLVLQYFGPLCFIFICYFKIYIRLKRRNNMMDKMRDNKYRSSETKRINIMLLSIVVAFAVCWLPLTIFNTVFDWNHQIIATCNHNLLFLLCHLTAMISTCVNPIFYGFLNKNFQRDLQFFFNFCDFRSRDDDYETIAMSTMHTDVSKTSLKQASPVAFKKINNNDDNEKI

[25] = biological target: Neuropeptide Y receptor type 2 (Homo sapiens) (UniProt P49146); experiment: Displacement of [125I]peptide YY from human Y2 receptor at 10 uM after 60 mins by radiometric scintillation analysis relative to control
Sequence of Neuropeptide Y receptor type 2 (Homo sapiens) (P49146 whole entry): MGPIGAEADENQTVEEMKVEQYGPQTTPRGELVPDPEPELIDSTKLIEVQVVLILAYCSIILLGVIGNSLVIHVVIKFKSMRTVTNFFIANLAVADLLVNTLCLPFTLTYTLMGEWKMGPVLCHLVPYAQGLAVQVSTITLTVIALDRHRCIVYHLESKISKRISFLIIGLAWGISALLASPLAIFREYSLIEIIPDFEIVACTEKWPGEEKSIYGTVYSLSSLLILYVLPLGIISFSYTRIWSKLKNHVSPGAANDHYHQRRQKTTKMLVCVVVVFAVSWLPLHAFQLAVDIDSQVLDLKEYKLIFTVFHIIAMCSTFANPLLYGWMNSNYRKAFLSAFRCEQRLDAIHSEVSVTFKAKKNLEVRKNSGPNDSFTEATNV

[26] = biological target: Delta-type opioid receptor (Homo sapiens) (UniProt P41143); experiment: Displacement of [3H]DADLE from recombinant human DOR receptor at 10 uM after 60 mins by radiometric scintillation analysis relative to control
[27] = biological target: Kappa-type opioid receptor (Homo sapiens) (UniProt P41145); experiment: Displacement of [3H]U69593 from human KOR receptor at 10 uM after 60 mins by radiometric scintillation analysis relative to control
[28] = biological target: 5-hydroxytryptamine receptor 7 (Homo sapiens) (UniProt P34969); experiment: Displacement of [3H]LSD from recombinant human 5-HT7 receptor at 10 uM after 120 mins by radiometric scintillation analysis relative to control
Sequence of 5-hydroxytryptamine receptor 7 (Homo sapiens) (P34969 whole entry): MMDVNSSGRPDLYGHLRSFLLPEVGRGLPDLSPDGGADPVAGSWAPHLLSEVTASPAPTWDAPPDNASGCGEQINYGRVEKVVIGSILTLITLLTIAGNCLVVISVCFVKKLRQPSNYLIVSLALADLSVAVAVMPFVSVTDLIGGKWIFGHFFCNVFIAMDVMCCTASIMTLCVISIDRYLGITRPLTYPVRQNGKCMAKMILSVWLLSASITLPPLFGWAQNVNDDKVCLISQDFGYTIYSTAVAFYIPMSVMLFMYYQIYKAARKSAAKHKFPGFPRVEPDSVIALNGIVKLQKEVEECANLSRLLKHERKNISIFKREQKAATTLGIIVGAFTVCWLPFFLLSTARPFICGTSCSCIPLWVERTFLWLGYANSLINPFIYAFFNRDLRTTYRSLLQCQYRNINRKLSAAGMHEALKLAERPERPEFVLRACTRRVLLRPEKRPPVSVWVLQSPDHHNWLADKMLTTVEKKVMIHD

[29] = biological target: Somatostatin receptor type 4 (Mus musculus) (UniProt P49660); experiment: Displacement of [125I]Tyr11-somatostatin-14 from mouse SST4 receptor at 10 uM after 120 mins by radiometric scintillation analysis relative to control
Sequence of Somatostatin receptor type 4 (Mus musculus) (P49660 as listed by the source): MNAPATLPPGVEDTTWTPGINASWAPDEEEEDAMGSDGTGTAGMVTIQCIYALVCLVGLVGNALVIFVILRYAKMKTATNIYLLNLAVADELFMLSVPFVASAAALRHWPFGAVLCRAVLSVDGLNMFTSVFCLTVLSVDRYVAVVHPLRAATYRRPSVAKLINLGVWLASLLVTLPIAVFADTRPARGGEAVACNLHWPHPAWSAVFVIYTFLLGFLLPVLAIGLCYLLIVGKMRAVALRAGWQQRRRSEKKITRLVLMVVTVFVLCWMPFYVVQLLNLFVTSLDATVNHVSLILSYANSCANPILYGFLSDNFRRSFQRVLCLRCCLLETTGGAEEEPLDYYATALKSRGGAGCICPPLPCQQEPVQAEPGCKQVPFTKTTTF

[30] = biological target: Vasoactive intestinal polypeptide receptor 1 (Homo sapiens) (UniProt P32241); experiment: Displacement of [125I]VIP recombinant human VPAC1 receptor at 10 uM after 120 mins by radiometric scintillation analysis relative to control
Sequence of Vasoactive intestinal polypeptide receptor 1 (Homo sapiens) (P32241 whole entry): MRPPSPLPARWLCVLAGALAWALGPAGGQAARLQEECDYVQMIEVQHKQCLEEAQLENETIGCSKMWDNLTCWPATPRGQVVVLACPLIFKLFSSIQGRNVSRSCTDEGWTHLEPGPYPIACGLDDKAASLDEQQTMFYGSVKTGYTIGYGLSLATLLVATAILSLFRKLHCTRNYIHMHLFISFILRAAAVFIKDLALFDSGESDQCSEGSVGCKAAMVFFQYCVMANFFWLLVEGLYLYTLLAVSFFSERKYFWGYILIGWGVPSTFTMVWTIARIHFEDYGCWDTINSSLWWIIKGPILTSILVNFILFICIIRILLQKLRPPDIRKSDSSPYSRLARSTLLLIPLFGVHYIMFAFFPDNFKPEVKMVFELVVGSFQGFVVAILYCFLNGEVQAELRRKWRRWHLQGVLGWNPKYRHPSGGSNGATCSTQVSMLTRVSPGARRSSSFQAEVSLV

[31] = biological target: Vasopressin V1a receptor (Homo sapiens) (UniProt P37288); experiment: Displacement of [3H]AVP recombinant human V1A receptor at 10 uM after 60 mins by radiometric scintillation analysis relative to control
[32] = biological target: Sodium-dependent dopamine transporter (Homo sapiens) (UniProt Q01959); experiment: Displacement of [3H]BTCP recombinant human dopamine transporter at 10 uM after 120 mins by radiometric scintillation analysis relative to control
[33] = biological target: Sodium-dependent serotonin transporter (Homo sapiens) (UniProt P31645); experiment: Displacement of [3H]imipramine recombinant human 5-HT transporter at 10 uM after 60 mins by radiometric scintillation analysis relative to control
Sequence of Sodium-dependent serotonin transporter (Homo sapiens) (P31645 whole entry, looked up): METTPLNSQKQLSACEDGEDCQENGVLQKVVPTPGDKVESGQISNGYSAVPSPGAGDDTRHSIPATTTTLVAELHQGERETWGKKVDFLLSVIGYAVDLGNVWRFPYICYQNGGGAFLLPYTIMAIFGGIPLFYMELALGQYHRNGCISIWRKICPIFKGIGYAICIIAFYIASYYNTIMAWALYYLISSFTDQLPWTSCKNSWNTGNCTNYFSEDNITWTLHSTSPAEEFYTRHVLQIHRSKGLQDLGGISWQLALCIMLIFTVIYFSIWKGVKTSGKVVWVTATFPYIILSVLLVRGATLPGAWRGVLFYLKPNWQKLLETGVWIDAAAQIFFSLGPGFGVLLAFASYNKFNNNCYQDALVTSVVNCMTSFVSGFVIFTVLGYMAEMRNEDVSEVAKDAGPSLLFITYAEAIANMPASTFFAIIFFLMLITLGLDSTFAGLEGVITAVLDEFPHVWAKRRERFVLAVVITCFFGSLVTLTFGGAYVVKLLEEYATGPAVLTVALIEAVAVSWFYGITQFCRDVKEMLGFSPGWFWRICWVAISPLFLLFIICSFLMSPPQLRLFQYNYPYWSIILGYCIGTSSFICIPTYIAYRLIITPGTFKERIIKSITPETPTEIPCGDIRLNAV

With `Cl.Cl.O=c1c2cc(Cl)ccc2oc2ccc(CN3CCN(CCOCCO)CC3)cc12` the AUC(0-t) at 8 h [1] was 5490 ng·h/mL, the half-life [2] was 2.89 h and the MRT [3] was 2.59 h. The Tmax [4] was 0.25 h, the CL/F [5] was 12.2 mL/min/kg and the MRT [6] was 2.58 h. It also gave a Cmax [7] of 18600 ng/mL, a Tmax [8] of 0.5 h and an Activity_index [9] of 0.76. For the same molecule, the Activity_index [10] was 0.45, the inhibition [11] was 0.6% and the inhibition [12] was 42.9%. The inhibition [13] was 8.5%, the inhibition [14] was 9.4% and the inhibition [15] was -0.1%. It also gave an inhibition [16] of 8.9%, an inhibition [17] of 27.4% and an inhibition [18] of 4.9%. For the same molecule, the inhibition [19] was 19.8%, the inhibition [20] was 11.1% and the inhibition [21] was 52.3%. It also gave an inhibition [22] of 49.4%, an inhibition [23] of 3.2% and an inhibition [24] of -9.5%. The inhibition [25] was 3.1%, the inhibition [26] was 27.1% and the inhibition [27] was 12.2%. It also gave an inhibition [28] of 5.3%, an inhibition [29] of -2.9% and an inhibition [30] of -1.2%. For the same molecule, the inhibition [31] was -0.2%, the inhibition [32] was 28.7% and the inhibition [33] was 24.8%.
